Laboratory results: US7910751B2, “Heterocyclidene acetamide derivative” (Mochida Pharmaceutical Co., Ltd., priority 2005, dated 2011)

Biological target: T1, human TRPV1 (Homo sapiens, UniProt Q8NER1)
T1 construct: expressed in transfected cells; host or cells: CHO-K1
Assay: Measurement of capsaicin-induced Ca influx in human TRPV1 transformed CHO cell line using FDSS-6000
Format: cell-based
Details: concentration at which the capsaicin concentration-reaction curve is shifted two times to the right, human TRPV1 transformed CHO cells

T1 sequence (Q8NER1 whole entry): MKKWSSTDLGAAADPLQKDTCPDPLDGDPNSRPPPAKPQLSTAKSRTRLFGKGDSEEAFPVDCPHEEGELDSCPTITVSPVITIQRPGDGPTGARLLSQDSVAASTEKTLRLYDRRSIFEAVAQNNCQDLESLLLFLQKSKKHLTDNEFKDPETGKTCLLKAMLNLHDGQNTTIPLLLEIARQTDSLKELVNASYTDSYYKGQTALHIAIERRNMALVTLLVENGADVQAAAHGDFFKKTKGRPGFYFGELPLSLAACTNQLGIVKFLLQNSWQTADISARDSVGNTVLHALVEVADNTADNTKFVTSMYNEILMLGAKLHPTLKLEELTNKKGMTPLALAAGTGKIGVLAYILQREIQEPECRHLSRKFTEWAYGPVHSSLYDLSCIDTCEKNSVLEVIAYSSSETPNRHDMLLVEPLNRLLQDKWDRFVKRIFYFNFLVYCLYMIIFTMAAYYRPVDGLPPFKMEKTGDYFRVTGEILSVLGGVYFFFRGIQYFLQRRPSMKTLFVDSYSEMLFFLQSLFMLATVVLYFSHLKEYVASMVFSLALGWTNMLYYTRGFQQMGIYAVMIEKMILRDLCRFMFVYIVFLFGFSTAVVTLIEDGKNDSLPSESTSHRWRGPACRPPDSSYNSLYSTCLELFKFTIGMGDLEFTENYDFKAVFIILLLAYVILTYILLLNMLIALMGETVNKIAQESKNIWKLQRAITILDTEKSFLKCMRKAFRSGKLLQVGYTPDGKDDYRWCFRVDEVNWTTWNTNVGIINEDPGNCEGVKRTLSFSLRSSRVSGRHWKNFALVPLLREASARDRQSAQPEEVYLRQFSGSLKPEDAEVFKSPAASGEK

Structure (SMILES)	A2 VALUE
Cc1nc2cc(NC(=O)/C=C3\CCCOc4cc(C(F)(F)F)ccc43)ccc2s1 [Example 19, (E)-2-(8-trifluoromethyl-3,4-dihydrobenzo[b]oxepin-5(2H)-ylidene)-N-(2-methyl-1,3-benzothiazolo-5-yl)acetamide]	A (compounds of the present invention having an A2 value of less than 100 nM are represented by A)
CC(F)(F)CC(=O)N1CC/C(=C\C(=O)Nc2cccc3c2CC(O)CC3)c2ccc(C(F)(F)F)cc21 (stereo not drawn) [Example 116, (E)-2-(1-(3,3-difluorobutanoyl)-7-trifluoromethyl-2,3-dihydroquinolin-4(1H)-ylidene)-N-(7-hydroxy-5,6,7,8-tetrahydronaphthalen-1-yl)acetamide]	A (compounds of the present invention having an A2 value of less than 100 nM are represented by A)
O=C(/C=C1\CC2(CCC2)Oc2cc(C(F)(F)F)ccc21)Nc1cccc2c1CC(O)CC2 (stereo not drawn) [Example 251, (E)-2-(7-trifluoromethyl-2,2-cyclobutylchroman-4-ylidene)-N-(7-hydroxy-5,6,7,8-tetrahydronaphthalen-1-yl)acetamide]	A (compounds of the present invention having an A2 value of less than 100 nM are represented by A)
CC(C)CCC(=O)N1CC/C(=C\C(=O)Nc2cccc3c2CC(O)CC3)c2ccc(C(F)(F)F)cc21 (stereo not drawn) [Example 86, (E)-2-(1-(4-methylpentanoyl)-7-trifluoromethyl-2,3-dihydroquinolin-4(1H)-ylidene)-N-(7-hydroxy-5,6,7,8-tetrahydronaphthalen-1-yl)acetamide]	A (compounds of the present invention having an A2 value of less than 100 nM are represented by A)
O=C(/C=C1\CCCOc2cc(C(F)(F)F)ccc21)Nc1ccc(S(=O)(=O)N2CCOCC2)cc1 [Example 26, (E)-2-(8-trifluoromethyl-3,4-dihydrobenzo[b]oxepin-5(2H)-ylidene)-N-(4-(4-morpholinylsulfonyl)phenyl)acetamide]	B (compounds having an A2 value of 100 nM or more are represented by B)
O=C(/C=C1\CCCOc2cc(C(F)(F)F)ccc21)Nc1ccc(C(=O)N2CCOCC2)cc1 [Example 25, (E)-2-(8-trifluoromethyl-3,4-dihydrobenzo[b]oxepin-5(2H)-ylidene)-N-(4-(4-morpholinylcarbonyl)phenyl)acetamide]	B (compounds having an A2 value of 100 nM or more are represented by B)
O=C(/C=C1\CCNc2cc(C(F)(F)F)ccc21)Nc1cccc2c1CC(O)CC2 (stereo not drawn) [Example 106, (E)-2-(7-trifluoromethyl-2,3-dihydroquinolin-4(1H)-ylidene)-N-(7-hydroxy-5,6,7,8-tetrahydronaphthalen-1-yl)acetamide]	A (compounds of the present invention having an A2 value of less than 100 nM are represented by A)
CN1CCC/C(=C\C(=O)Nc2ccc3cccnc3c2)c2ccc(C(F)(F)F)cc21 [Example 196, (E)-2-(1-methyl-8-trifluoromethyl-1,2,3,4-tetrahydro-5H-benzo[b]azepin-5-ylidene)-N-(quinolin-7-yl)acetamide]	A (compounds of the present invention having an A2 value of less than 100 nM are represented by A)
O=C(/C=C1\CCOc2cc(C(F)(F)F)c(F)cc21)Nc1cccc2c1CC(O)CC2 (stereo not drawn) [Example 214, (E)-2-(6-fluoro-7-trifluoromethyl-chroman-4-ylidene)-N-(7-hydroxy-5,6,7,8-tetrahydronaphthalen-1-yl)acetamide]	A (compounds of the present invention having an A2 value of less than 100 nM are represented by A)
O=C(/C=C1\CCN(C(=O)c2ccccc2)c2cc(C(F)(F)F)ccc21)Nc1ccc2cccnc2c1 [Example 54, (E)-2-(7-trifluoromethyl-2,3-dihydro-1-benzoylquinolin-4(1H)-ylidene)-N-(quinolin-7-yl)acetamide]	A (compounds of the present invention having an A2 value of less than 100 nM are represented by A)
CC1(C)C/C(=C\C(=O)Nc2cccc3c2CC(O)CN3)c2ccc(C(F)(F)F)cc2O1 (stereo not drawn) [Example 246, (E)-2-(7-trifluoromethyl-2,2-dimethylchroman-4-ylidene)-N-(3-hydroxy-1,2,3,4-tetrahydroquinolin-5-yl)acetamide]	A (compounds of the present invention having an A2 value of less than 100 nM are represented by A)
O=C(/C=C1\CCN(c2ccc(Cl)cc2)c2cc(C(F)(F)F)ccc21)Nc1ccc2cccnc2c1 [Example 57, (E)-2-(1-(4-chlorophenyl)-7-trifluoromethyl-2,3-dihydro-4(1H)-ylidene)-N-(quinolin-7-yl)acetamide]	A (compounds of the present invention having an A2 value of less than 100 nM are represented by A)
O=C(/C=C1\CCCOc2cc(C(F)(F)F)ccc21)Nc1cccc2cn[nH]c12 [Example 254, (E)-2-(8-trifluoromethyl-3,4-dihydrobenzo[b]oxepin-5(2H)-ylidene)-N-(1H-indazol-7-yl)acetamide]	A (compounds of the present invention having an A2 value of less than 100 nM are represented by A)
O=C(/C=C1\CCCOc2cc(C(F)(F)F)ccc21)Nc1cccc2c(O)cccc12 [Example 150, (E)-2-(8-trifluoromethyl-3,4-dihydrobenzo[b]oxepin-5(2H)-ylidene)-N-(5-hydroxynaphthalen-1-yl)acetamide]	A (compounds of the present invention having an A2 value of less than 100 nM are represented by A)
O=C(/C=C1\CCCOc2cc(C(F)(F)F)ccc21)NCc1ccc(-n2cccn2)cc1 [Example 38, (E)-N-(4-(1H-pyrazolo-1-yl)phenylmethyl)-2-(8-trifluoromethyl-3,4-dihydrobenzo[b]oxepin-5(2H)-ylidene)acetamide]	B (compounds having an A2 value of 100 nM or more are represented by B)
Cc1cc(NC(=O)/C=C2\CCCOc3cc(C(F)(F)F)ccc32)n(C(C)(C)C)n1 [Example 46, (E)-N-(1-tert-butyl-3-methyl-1H-pyrazolo-5-yl)-2-(8-trifluoromethyl-3,4-dihydrobenzo[b]oxepin-5(2H)-ylidene)acetamide]	B (compounds having an A2 value of 100 nM or more are represented by B)
CCC(CC)C(=O)N1CC/C(=C\C(=O)Nc2ccc3cccnc3c2)c2ccc(C(F)(F)F)cc21 [Example 51, (E)-2-(1-(2-ethylbutanoyl)-7-trifluoromethyl-2,3-dihydroquinolin-4(1H)-ylidene)-N-(quinolin-7-yl)acetamide]	A (compounds of the present invention having an A2 value of less than 100 nM are represented by A)
CCCCC(=O)N1CC/C(=C\C(=O)Nc2cccc3c2CC(O)CN3)c2ccc(C(F)(F)F)cc21 (stereo not drawn) [Example 108, (E)-2-(7-trifluoromethyl-2,3-dihydro-1-pentanoylquinolin-4(1H)-ylidene)-N-(3-hydroxy-1,2,3,4-tetrahydroquinolin-5-yl)acetamide]	A (compounds of the present invention having an A2 value of less than 100 nM are represented by A)
